# In patent US10512699B2 (Cedars-Sinai Medical Center, priority 2008, dated 2019):
# Tests used:
# [1] = biological target: T1, Aβ plaques (Homo sapiens, UniProt P05067); test: Ex vivo curcumin staining of postmortem human whole-mount retinas; type: binding
# Text: We also analyzed the human retinas with antibodies directed against human Aβ.
# Autopsy eyes from Alzheimer's patients were procured from the Alzheimer's Disease Research Center, Department of Pathology, University of Southern California (Los Angeles, Calif.), under IRB protocols 99491 and 3201. Healthy donor eyes were purchased from National Disease Research Interchange (NDRI, Philadelphia, Pa.). NDRI has a human tissue collection protocol approved by a managerial committee and subject to National Institutes of Health oversight. Diseased and normal eyes were fixed and stored in 10% neutral buffered formalin. In addition, we used two healthy eyes that were frozen without fixation and stored at −80° C. Whole-mount retinas were prepared from the eyes and further studied by immunohistochemisty.
# The samples were covered with GVA mounting media (Zymed).
# [2] = biological target: T1, Aβ plaques; test: In vivo imaging of the retina in live mice after curcumin injection; parameters: species or system mouse; details: single injection 7.5 mg/kg, two hours prior to imaging, excitation 546/15 nm, AD-Tg mice
# Description: To investigate the feasibility of our approach for noninvasive plaque detection, we conducted an in vivo imaging of the retina in live mice using a modified stereomicroscope (Leica S6E) with a wavelength-controlled light source and a digital camera.
# Mice were anaesthetized with Ketamine 100 mg/ml/kg and Xylazine 20 mg/ml/kg. Mouse pupils were dilated to about 2 mm in diameter with 0.5% phenylephrine hydrochloride ophthalmic solution (Bausch & Lomb) combined with 0.5% tropicamide ophthalmic solution (Mydral; Bausch & Lomb). During the imaging process, the mice were positioned on a stage of the stereomicroscope, and the eye was covered with a drop of PBS supplemented with calcium and magnesium, which served as an optical coupling medium between the eye surface and the imaging lens. A modified stereomicroscope (Leica S6E) that was adjusted to visualize fluorescence and scatter signals at higher resolution was used to capture images (exposure time 750 ms. with gain 4). The modified stereomicroscope was assembled to include a Polychrome V (Till Photonics) variable wavelength light source, a MicroFire color digital camera (Optronics), and an additional 6× (double convex) magnifying lens, with a focal length of 10 cm. Images were repeatedly captured at several different angles, in order to visualize a larger field and to eliminate non-specific reflection signals.
# [3] = biological target: T1, Aβ plaques; test: In vivo labeling of Aβ plaques after systemic curcumin administration, tissues examined afterwards; parameters: species or system mouse
# Description: Mice were anesthetized and perfused with 4% ice-cold buffered PFA, and a group of mice were not perfused. Their eyes were enucleated and fixed immediately in 4% fresh PFA overnight. For whole mount retinas, the eyes were dissected and the anterior part was removed. The eyecups were soaked for 10 minutes in hyaluronidase (type I-S) (0.07 mg/ml) (Sigma) to liquefy and remove the vitreous residues, than washed for 10 minutes×3 in PBS, and the whole mount retinas were collected. For whole eye sectioning, the eyes were put in 30% sucrose in 4% PFA for 2 hours, than washed for 15 minutes×3 in PBS. The eyes were embedded in O.C.T and frozen slowly on dry ice than sagittal sectioned (7 μm) with cryostat. Brains were collected and fixed immediately in 4% fresh PFA overnight. The brains were put in 30% sucrose (in 4% PFA) gradient. Brains were washed for 15 minutes×3 in PBS, next embedded in O.C.T and frozen slowly on dry ice, then coronal sectioned (30 μm) with cryostat. […] Subsequently, brains and eyes were cryosectioned, or prepared for whole mount retina.
# [4] = biological target: T1, Aβ plaques; test: Ex vivo curcumin staining of brain cryosections and retinas of AD-Tg mice; type: binding, mouse
# Description: Brain cryosections (30 μm thick), retina cross sections (cryosections) (7 μm thick) and whole mount retinas were treated with a permeabilization/blocking solution containing 20% horse serum (Invitrogen) and 0.01-0.1% Triton X-100 (Sigma-Aldrich, St. Louis, Mo.). Sections were stained overnight at 4° C. with a specified combination of the following primary Abs in PBS containing 10% blocking solution: mouse anti-Aβ [human amino-acid residues 1-17; clone 6E10 (1:100; Milipore, Temecula, Calif.)]. […]
# Micrographs of stained tissues were obtained on an Axio Imager Z1 ApoTome-equipped microscope (with motorized Z-drive) with AxioCam MRm monochrome camera ver. […] Quantitative analysis of Aβ plaque number and area (mm^2) was performed from two wholemounted retinas per mouse (n=4 mice per group). […] Quantitative analysis of Aβ plaque number and area (mm^2) in the brain was determined from three coronal sections (two hemispheres each) per mouse with 450 μm intervals, over an area covering hippocampal and cortical regions. […] Total area and quantitative levels of immunoreactivity were determined using a standardized custom histogram-based threshold technique, and then subjected to particle analysis.
# T1 sequence (P05067 672-713 limits assumed): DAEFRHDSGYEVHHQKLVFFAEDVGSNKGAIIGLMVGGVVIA
structure (smiles),measurement,setting,value
"COc1cc(/C=C/C(=O)CC(=O)/C=C/c2ccc(O)c(OC)c2)ccc1O [curcumin, diferuloylmethane]",Co-localization of curcumin with anti-human Aβ immunolabeling,"[1]; human AD retinas, curcumin after immunolabeling",confirmed their co-localization
same,Plaques detected by curcumin in human retinas,"[1]; postmortem AD patient eyes (n=9), after Sudan Black B, none in non-AD eyes",found in all AD patient eyes examined
same,Visibility of curcumin-labeled plaques in live mouse retina,[2],curcumin-labeled plaques were visible
same,Detection of labeled plaques following administered curcumin,"[3]; i.v., single or multiple injections, retinas and brains","could be detected in the retinas and brains of AD-Tg mice, but not in the non-Tg (wt) controls"
same,Affinity for Aβ plaques in vivo,"[3]; mice, intravenous injection",high affinity for Aβ plaques in vivo
same,Blood-brain barrier crossing,"[3]; mice, intravenous injection",crosses the blood-brain barrier
same,Blood-retina barrier crossing,"[3]; mice, intravenous injection",also crosses the blood-retina barrier
same,Detection of retinal Aβ plaques,[3]; systemically at a single dose of 7.5 mg/kg or given orally,effective in detecting retinal Aβ plaques
same,Curcumin staining of plaques detected by anti-human Aβ antibodies,"[4]; hippocampus of AD-Tg mice, brain cryosections, ex vivo",had an affinity to the same plaques that were detected by antibodies specific to human Aβ
same,Curcumin labeling of retinal Aβ plaques,"[4]; retinas of AD-Tg mice, whole mount and cross-section, not in non-Tg (wt) mice",presence of Aβ plaques labeled by both curcumin and anti-human AP-antibodies
